The values that follow come from US20250268855A1, “PHARMACEUTICAL AND NUTRACEUTICAL COMPOSITIONS WITH A COMBINATION OF AMINO ACIDS AND ITS USE IN DISEASES CHARACTERIZED BY LIPID ACCUMULATION IN TISSUES” (FUNDACIÓ EURECAT, priority 2022, published 2025).

Structures are written as SMILES.

Assay [1] deals with hepatocyte cell line (HepG2). Description: In vitro assay of gene expression in hepatocyte cell line. Format: cell-based, human. The note with it: HepG2, 24 h; Histidine 10 mM, carnosine 5 mM, cysteine 5 mM, serine 5 mM; vs. control. How it is done: These concentrations were conserved with the different combinations. Data are expressed as mean±SEM; n=3-4 per condition. *p<0.05; **p<0.01, ***p<0.001 vs. vehicle.
An in vitro assay was also carried out using the hepatocyte cell line (HepG2) to test the effect of different combinations of the supplemented amino acids in hepatic expression of key genes of fatty acid beta-oxidation (carnitine palmitoyltransferase, Cpt1a), inflammation (chemokine (C-C motif) ligand 2, CCL2), lipolysis (hormone-sensitive, HSL; and lipin, LPIN) and lipogenesis (fatty acid synthase, FASN). Gene expression was determined by qPCR as previously indicated (see materials and methods in example 1). […] The Cpt1a enzyme is located in the outer membrane, and it is the key enzyme in the carnitine-dependent transport across the mitochondrial inner membrane. Its deficiency results in a decreased rate of fatty acid beta-oxidation.
Data are depicted in FIG. 7, wherein the level of expression (mRNA) is indicated for any of the supplemented media. […]

The subject of assay [2] is mice consumed high saturated fat diet. The conditions noted are these: Mong et al.; cited from earlier work.

As to `NCCC(=O)N[C@@H](Cc1cnc[nH]1)C(=O)O` [carnosine], the “Cpt1a mRNA expression (the cited enzyme)” value in assay [1] is on record as “trend to reduce the effect”. Besides, in assay [2], the body weight result is on record as “lowered”, the epididymal fat entry is recorded as “lowered”, the hepatic cholesterol levels entry was “lowered” and the hepatic triglyceride levels result is recorded as “lowered”. Moreover, in assay [2], the hyper-insulinemia entry is listed as “attenuated” and the insulin sensitivity result is “improved”.
`N[C@@H](Cc1c[nH]cn1)C(=O)O` [histidine]: in assay [2], the body weight entry is recorded as “lowered”, the epididymal fat result is “lowered”, the hepatic cholesterol levels result is “lowered” and the hepatic triglyceride levels entry is listed as “lowered”. In assay [2], the hyper-insulinemia result is “attenuated” and the insulin sensitivity entry is on record as “improved”.
